# Measurements published in PubChem BioAssay AID2060893 (Molecular Pharmacology Branch, DTP, NCI, 2025).
# System: K86415-001-R-J1-PDC complex spheroids, viability
# Assay: Anticancer human tumor K86415-001-R-J1-PDC patient-derived lung adenocarcinoma cell line growth inhibition [RAS]
# Conditions: for IC50: curve of first compound; for viability, T/C: stronger effect = lower value
# Outline: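 Tumour cells grown as complex spheroids with HUVEC endothelial cells and mesenchymal stem cells, treated with RAS pathway inhibitor combinations. Each agent spans half-log steps from near clinical Cmax, or 10 microM where Cmax is unknown.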
# [1] = second compound 0.000949 µM, first compound 0.0316 µM
# [2] = second compound 0.000949 µM, first compound 0.1 µM
# [3] = second compound 0.000949 µM, first compound 0.316 µM
# [4] = second compound 0.000949 µM, first compound 1 µM
# [5] = second compound 0.000949 µM, first compound 3.16 µM
# [6] = second compound 0.000949 µM, first compound 10 µM
# [7] = second compound 0.003 µM, first compound 0.0316 µM
# [8] = second compound 0.003 µM, first compound 0.1 µM
# [9] = second compound 0.003 µM, first compound 0.316 µM
# [10] = second compound 0.003 µM, first compound 1 µM
# [11] = second compound 0.003 µM, first compound 3.16 µM
# [12] = second compound 0.003 µM, first compound 10 µM
# [13] = second compound 0.00949 µM, first compound 0.0316 µM
# [14] = second compound 0.00949 µM, first compound 0.1 µM
# [15] = second compound 0.00949 µM, first compound 0.316 µM
# [16] = second compound 0.00949 µM, first compound 1 µM
# [17] = second compound 0.00949 µM, first compound 3.16 µM
# [18] = second compound 0.00949 µM, first compound 10 µM
# [19] = second compound 0.03 µM, first compound 0.0316 µM
# [20] = second compound 0.03 µM, first compound 0.1 µM
# [21] = second compound 0.03 µM, first compound 0.316 µM
# [22] = second compound 0.03 µM, first compound 1 µM
# [23] = second compound 0.03 µM, first compound 3.16 µM
# [24] = second compound 0.03 µM, first compound 10 µM
# [25] = second compound 0.0949 µM, first compound 0.0316 µM
# [26] = second compound 0.0949 µM, first compound 0.1 µM
# [27] = second compound 0.0949 µM, first compound 0.316 µM
# [28] = second compound 0.0949 µM, first compound 1 µM
# [29] = second compound 0.0949 µM, first compound 3.16 µM
# [30] = second compound 0.0949 µM, first compound 10 µM
# [31] = second compound 0.3 µM, first compound 0.0316 µM
# [32] = second compound 0.3 µM, first compound 0.1 µM
# [33] = second compound 0.3 µM, first compound 0.316 µM
# [34] = second compound 0.3 µM, first compound 1 µM
# [35] = second compound 0.3 µM, first compound 3.16 µM
# [36] = second compound 0.3 µM, first compound 10 µM
# 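Also: spheroids exposed to agents for seven days before readout.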
compound,measurement,setting,value
CC(=O)OC12COC1CC(O)C1(C)C(=O)C(O)C3=C(C)C(OC(=O)C(O)C(NC(=O)OC(C)(C)C)c4ccccc4)CC(O)(C(OC(=O)c4ccccc4)C21)C3(C)C (stereo unspecified) + CCn1c(-c2cccnc2C(C)OC)c2c3cc(ccc31)N1CCOC(CC(NC(=O)C(C(C)C)N(C)C(=O)C3(F)CCN(C(=O)C#CC(C)(C)N(C)C)CC3)C(=O)N3CCCC(N3)C(=O)OCC(C)(C)C2)C1,IC50,second compound 0.000949 µM,< 31.6 nM
same,IC50,second compound 0.003 µM,< 31.6 nM
same,IC50,second compound 0.00949 µM,< 31.6 nM
same,IC50,second compound 0.03 µM,< 31.6 nM
same,IC50,second compound 0.0949 µM,< 31.6 nM
same,IC50,second compound 0.3 µM,< 31.6 nM
same,"viability, T/C",[1],18.7%
same,"viability, T/C",[2],15.3%
same,"viability, T/C",[3],11.3%
same,"viability, T/C",[4],17.3%
same,"viability, T/C",[5],16.2%
same,"viability, T/C",[6],12.4%
same,"viability, T/C",[7],15.4%
same,"viability, T/C",[8],12%
same,"viability, T/C",[9],11.3%
same,"viability, T/C",[10],10.1%
same,"viability, T/C",[11],12.7%
same,"viability, T/C",[12],9.57%
same,"viability, T/C",[13],13.6%
same,"viability, T/C",[14],10.8%
same,"viability, T/C",[15],12.1%
same,"viability, T/C",[16],11.7%
same,"viability, T/C",[17],11.5%
same,"viability, T/C",[18],7.67%
same,"viability, T/C",[19],10.3%
same,"viability, T/C",[20],14.9%
same,"viability, T/C",[21],10.9%
same,"viability, T/C",[22],11.3%
same,"viability, T/C",[23],10.9%
same,"viability, T/C",[24],12.1%
same,"viability, T/C",[25],11.4%
same,"viability, T/C",[26],9.46%
same,"viability, T/C",[27],10.1%
same,"viability, T/C",[28],10.8%
same,"viability, T/C",[29],6.98%
same,"viability, T/C",[30],8.55%
same,"viability, T/C",[31],10.3%
same,"viability, T/C",[32],7.45%
same,"viability, T/C",[33],7.7%
same,"viability, T/C",[34],5.41%
same,"viability, T/C",[35],6.82%
same,"viability, T/C",[36],7.01%
NC1c2ccccc2OC12CCN(c1cnc3c(N4CCCc5ncccc54)n[nH]c3n1)CC2 (stereo unspecified) + CCn1c(-c2cccnc2C(C)OC)c2c3cc(ccc31)N1CCOC(CC(NC(=O)C(C(C)C)N(C)C(=O)C3(F)CCN(C(=O)C#CC(C)(C)N(C)C)CC3)C(=O)N3CCCC(N3)C(=O)OCC(C)(C)C2)C1,IC50,second compound 0.000949 µM,< 31.6 nM
same,IC50,second compound 0.003 µM,< 31.6 nM
same,IC50,second compound 0.00949 µM,< 31.6 nM
same,IC50,second compound 0.03 µM,< 31.6 nM
same,IC50,second compound 0.0949 µM,< 31.6 nM
same,IC50,second compound 0.3 µM,< 31.6 nM
same,"viability, T/C",[1],13.4%
same,"viability, T/C",[2],8.22%
same,"viability, T/C",[3],6.07%
same,"viability, T/C",[4],6.52%
same,"viability, T/C",[5],7.18%
same,"viability, T/C",[6],5.23%
same,"viability, T/C",[7],5.86%
same,"viability, T/C",[8],4.35%
same,"viability, T/C",[9],4.13%
same,"viability, T/C",[10],4.19%
same,"viability, T/C",[11],4.18%
same,"viability, T/C",[12],3.63%
same,"viability, T/C",[13],6.83%
same,"viability, T/C",[14],4.56%
same,"viability, T/C",[15],3.88%
same,"viability, T/C",[16],3.79%
same,"viability, T/C",[17],3.72%
same,"viability, T/C",[18],4.04%
same,"viability, T/C",[19],5.26%
same,"viability, T/C",[20],5.42%
same,"viability, T/C",[21],4.52%
same,"viability, T/C",[22],3.97%
same,"viability, T/C",[23],2.82%
same,"viability, T/C",[24],3.8%
same,"viability, T/C",[25],6.89%
same,"viability, T/C",[26],5.55%
same,"viability, T/C",[27],3.94%
same,"viability, T/C",[28],3.94%
same,"viability, T/C",[29],2.53%
same,"viability, T/C",[30],3.05%
same,"viability, T/C",[31],5.95%
same,"viability, T/C",[32],4.18%
same,"viability, T/C",[33],4.35%
same,"viability, T/C",[34],2.49%
same,"viability, T/C",[35],2.46%
same,"viability, T/C",[36],2.39%
Nc1ccn(C2OC(CO)C(O)C2(F)F)c(=O)n1 (stereo unspecified) + CCn1c(-c2cccnc2C(C)OC)c2c3cc(ccc31)N1CCOC(CC(NC(=O)C(C(C)C)N(C)C(=O)C3(F)CCN(C(=O)C#CC(C)(C)N(C)C)CC3)C(=O)N3CCCC(N3)C(=O)OCC(C)(C)C2)C1,IC50,second compound 0.000949 µM,< 3.16 nM
same,IC50,second compound 0.003 µM,< 3.16 nM
same,IC50,second compound 0.00949 µM,< 3.16 nM
same,IC50,second compound 0.03 µM,< 3.16 nM
same,IC50,second compound 0.0949 µM,< 3.16 nM
same,IC50,second compound 0.3 µM,< 3.16 nM
same,"viability, T/C","second compound 0.000949 µM, first compound 0.00316 µM",37.9%
same,"viability, T/C","second compound 0.000949 µM, first compound 0.01 µM",34.3%
same,"viability, T/C",[1],19.9%
same,"viability, T/C",[2],27%
same,"viability, T/C",[3],19.2%
same,"viability, T/C",[4],9.69%
same,"viability, T/C","second compound 0.003 µM, first compound 0.00316 µM",15.3%
same,"viability, T/C","second compound 0.003 µM, first compound 0.01 µM",11.6%
same,"viability, T/C",[7],10.8%
same,"viability, T/C",[8],12.3%
same,"viability, T/C",[9],12%
same,"viability, T/C",[10],9.95%
same,"viability, T/C","second compound 0.00949 µM, first compound 0.00316 µM",9.77%
same,"viability, T/C","second compound 0.00949 µM, first compound 0.01 µM",10%
same,"viability, T/C",[13],16.4%
same,"viability, T/C",[14],12.3%
same,"viability, T/C",[15],11.2%
same,"viability, T/C",[16],7.94%
same,"viability, T/C","second compound 0.03 µM, first compound 0.00316 µM",13.3%
same,"viability, T/C","second compound 0.03 µM, first compound 0.01 µM",11%
same,"viability, T/C",[19],11.1%
same,"viability, T/C",[20],9.53%
same,"viability, T/C",[21],9.66%
same,"viability, T/C",[22],12.4%
same,"viability, T/C","second compound 0.0949 µM, first compound 0.00316 µM",11.5%
same,"viability, T/C","second compound 0.0949 µM, first compound 0.01 µM",10.9%
same,"viability, T/C",[25],12.8%
same,"viability, T/C",[26],11.3%
same,"viability, T/C",[27],7.92%
same,"viability, T/C",[28],10.5%
same,"viability, T/C","second compound 0.3 µM, first compound 0.00316 µM",15.4%
same,"viability, T/C","second compound 0.3 µM, first compound 0.01 µM",12.6%
same,"viability, T/C",[31],11.2%
same,"viability, T/C",[32],9.08%
same,"viability, T/C",[33],8.09%
same,"viability, T/C",[34],10.1%
